Test results: patent US20250163113A1, “PEPTIDES TARGETING THE INTERACTION BETWEEN KINDLIN-1 AND Beta-INTEGRIN” (INSTITUT CURIE, priority 2022, published 2025)
One block for each compound: values may come before it. Residues, ends and D or L forms follow the SMILES beside them.

Experiments:
[1] = tested on: triple negative breast cancer PDX; test: Triple negative breast cancer patient derived xenograft (PDX) model; format: in vivo; conditions: nude mice, 10 mg/Kg intraperitoneal 5 days per week
Description: FIG. 6: Kindpep1 reduces the metastatic spread in a breast cancer PDX model. A. Diagram presenting the course of the experiment. B Quantification of the number of metastatic nodules found in the lungs of control and Kindpep1 treated mice. Mean±SEM are represented. Statistical analyses were performed by a t-test.
The triple negative breast cancer PDX model expressing high levels of Kindlin-1 was obtained from the Laboratoire d'Investigation Pré-clinique. Informed consent was obtained from patient before xenograft establishment. When tumor reached a volume of 60 to 200 mm^3, mice were randomly assigned to the control or treated group. Kindpep1 was administrated by intraperitoneal injection at a dose of 10 mg/kg 5 times a week. The vehicle alone (Nacl 0.9%) was administered to the control group following the same treatment regimen as with the drug. The control and treated group consisted of 10 mice each.
Then, a triple negative breast cancer patient derived xenograft (PDX) model previously characterized as highly metastatic and presenting high expression levels of Kindlin-1 was chosen. Tumor fragments were grafted into the interscapular fat pad of female nude immunodeficient mice and 5 days later the treatment started. […] The treatment was administered by intraperitoneal injections 5 days per week and tumor growth was monitored until reaching the ethical size, i.e. 2 cm^3 (FIG. 6A). […]

[2] = tested on: H358 lung cancer cell line; test: NCI-H358 KRAS-dependent lung cancer xenograft mouse model; format: in vivo; conditions: 10 mg/Kg intraperitoneal 5 days per week
Description: FIG. 9: Kindpep decreases tumor growth of KRAS-dependent tumors in vivo. A. Diagram presenting the course of the experiment. B. Scatter plot showing the tumor volume of the different mice of the control and Kindpep1 treated groups, at the end of the treatment. Mean±SD are represented (*p<0.05). C. Graph monitoring tumor growth of control and Kindpep1 treated mice during the course of the experiment. Mean±SD are represented.
NCI-H358 model: 1×10^5 cells were injected subcutaneously in the flanks of 6-week old female BALB/c mice (n=10 mice for each control and treated groups). Tumor volume was measured with caliper 3 times a week. […] Tumor volumes were calculated as: Volume (cm^3)=a×b^2/2 (a and b are the two registered perpendicular diameters a>b). Tumor growth inhibition (TGI) was calculated using the following formula [1−(Vft−V0t)/(Vfc−V0c))]*100 where Vft=final volume of the treated group (at the end of the treatment); Vot=initial volume of the treatment group (at the beginning of the treatment); Vfc=final volume of the control group (at the end of the treatment); V0c=initial volume of the control group (at the beginning of the treatment).
Finally, inventors wanted to validate in vivo the impact of Kindpep1 treatment in KRAS-dependent tumors. […] The treatment was administered by intraperitoneal injections 5 days per week and tumor growth was monitored for 50 days (FIG. 9A).

[3] = tested on: 4T1-luc cells; test: 4T1-luc metastatic breast cancer model in BALB/c mice; format: in vivo; conditions: BALB/c mice, 2, 10 or 50 mg/kg, 7 day per week during 10 days
Excerpt: FIG. 5: Kindpep1 reduces tumor growth and metastatic spread in breast cancer in vivo. A. Diagram presenting the course of the experiment. B. Corresponding relative tumor growth graph to bioluminescence images of tumors at day 25. C. Corresponding graph showing the quantification of the total area of metastatic nodules found in the different groups of mice to bioluminescence images of metastasis at day 25. Area ph/s/group stands for area photon/second/group.
4T1-luc model: 1×10^5 4T1-luc cells were inoculated subcutaneously in the flanks of 6-week old female BALB/c mice (n=28). Eleven days after tumor cell inoculation, […] mice were randomly assigned to receive intraperitoneal injection of Kindpep1 (2, 10 or 50 mg/kg) or placebo (PBS). The tumor growth and the progression of metastatic lesions were also weekly monitored by bioluminescence imaging of animals using the Nightowl imaging system. On day 25 after tumor cell inoculation, anesthetized mice were sacrificed by cervical dislocation.
These observations prompted the investigation of the effects of Kindpep1 in vivo. […] Thus, the effects of Kindpep1 on tumor dissemination in a metastatic breast cancer model was studied. 4T1 cells were used because they have a high Kindlin-1 expression and have been also described to form lung metastasis in vivo. […]

[4] = biological target: T1, β1-integrin (Homo sapiens, UniProt P05556); test: Flow cytometry of cell-surface active β1-integrin (9EG7) in MDA MB 231 cells; format: cell-based; conditions: MDA MB 231, 2 mM MnCl2, positive control
T1 construct: endogenous in cells; host or cells: MDA MB 231 human breast cancer cells
Description: FIG. 3: Kindpep1 reduces β1-integrin activation. Fluorescence activated sorter (FACS) histograms (top) and the corresponding bar graphs showing the mean fluorescence intensity (MFI) of cell-surface active β-1 integrin (9EG7 staining) of MDA MB 231 cells untreated, treated with Kindpep1 (200 μM) for 15 h or treated with 2 mM MnCl2.
To quantify the expression levels of integrins, cultured cells were trypsinized, washed and incubated for 1 h at 4° C. in phosphate-buffered saline (PBS) containing 150 mM NaCl and 1% BSA with the rat anti-1 integrin (9EG7 clone, 1:300) primary antibodies obtained from BD Biosciences. Cells were then washed 3 times, incubated with Alexa Fluor 488-conjugated secondary antibody for 1 h at 4° C. and washed. 1×10^4 cells were analyzed on a FACS Calibur. The mean fluorescence intensity of each sample was obtained using the Flowing software 2.
The effect of Kindpep1 on β1-integrin activation was confirmed by performing the same immunofluorescence assays using the human breast cancer cell line MDA MB 231, characterized by a high Kindlin-1 protein endogeneous expression.

[5] = biological target: β1-integrin of 168FARN mouse breast cancer cells (endogenous) (mouse) (UniProt P09055); test: cell-based or functional assay
β1-integrin of 168FARN mouse breast cancer cells (endogenous) (mouse), sequence (P09055 21-798): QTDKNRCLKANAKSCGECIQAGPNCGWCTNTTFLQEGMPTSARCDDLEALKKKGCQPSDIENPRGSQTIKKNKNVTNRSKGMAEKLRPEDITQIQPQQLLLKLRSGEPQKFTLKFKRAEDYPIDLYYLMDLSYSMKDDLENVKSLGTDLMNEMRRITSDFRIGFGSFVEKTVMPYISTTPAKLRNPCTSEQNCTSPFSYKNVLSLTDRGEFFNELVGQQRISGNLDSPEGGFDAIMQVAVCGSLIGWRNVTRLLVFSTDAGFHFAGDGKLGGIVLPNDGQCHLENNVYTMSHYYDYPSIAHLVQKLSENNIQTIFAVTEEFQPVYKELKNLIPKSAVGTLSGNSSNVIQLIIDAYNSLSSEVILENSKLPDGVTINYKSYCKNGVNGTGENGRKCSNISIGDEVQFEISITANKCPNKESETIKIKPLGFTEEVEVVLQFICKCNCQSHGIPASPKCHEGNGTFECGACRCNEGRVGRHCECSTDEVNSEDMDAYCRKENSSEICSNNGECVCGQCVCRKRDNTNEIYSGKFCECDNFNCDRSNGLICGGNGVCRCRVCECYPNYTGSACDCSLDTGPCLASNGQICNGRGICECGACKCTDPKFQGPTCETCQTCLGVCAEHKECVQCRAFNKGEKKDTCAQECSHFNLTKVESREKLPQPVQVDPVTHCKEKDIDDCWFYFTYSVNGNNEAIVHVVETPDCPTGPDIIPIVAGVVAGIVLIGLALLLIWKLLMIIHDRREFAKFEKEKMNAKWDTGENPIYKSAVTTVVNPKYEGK

T1 sequence (P05556 21-798): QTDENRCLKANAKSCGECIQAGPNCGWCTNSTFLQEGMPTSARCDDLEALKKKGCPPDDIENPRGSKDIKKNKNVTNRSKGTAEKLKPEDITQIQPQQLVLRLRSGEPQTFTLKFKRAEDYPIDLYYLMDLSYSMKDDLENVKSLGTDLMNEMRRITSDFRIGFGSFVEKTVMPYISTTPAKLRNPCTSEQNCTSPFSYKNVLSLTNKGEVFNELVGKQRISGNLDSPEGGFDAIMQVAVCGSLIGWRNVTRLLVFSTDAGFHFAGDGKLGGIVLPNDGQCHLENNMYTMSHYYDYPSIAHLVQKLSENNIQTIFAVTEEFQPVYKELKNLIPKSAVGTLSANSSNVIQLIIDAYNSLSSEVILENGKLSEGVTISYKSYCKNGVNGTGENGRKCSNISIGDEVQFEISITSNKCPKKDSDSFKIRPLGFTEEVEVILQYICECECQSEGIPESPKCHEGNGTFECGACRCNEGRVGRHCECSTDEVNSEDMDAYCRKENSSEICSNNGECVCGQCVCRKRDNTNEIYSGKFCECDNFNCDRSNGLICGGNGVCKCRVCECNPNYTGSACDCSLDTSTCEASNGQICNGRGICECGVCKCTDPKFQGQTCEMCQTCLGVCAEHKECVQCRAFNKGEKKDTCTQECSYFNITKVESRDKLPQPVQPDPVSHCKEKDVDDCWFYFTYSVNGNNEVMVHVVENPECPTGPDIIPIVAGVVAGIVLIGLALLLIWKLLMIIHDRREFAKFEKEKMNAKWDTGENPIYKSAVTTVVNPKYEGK

Compound: CC[C@H](C)[C@H](NC(=O)[C@H](CCCCN)NC(=O)[C@H](CCCCN)NC(=O)[C@H](CCCCN)NC(=O)[C@H](CCCCN)NC(=O)[C@@H](N)C(C)C)C(=O)N[C@@H](CCCCN)C(=O)N[C@@H](C)C(=O)N[C@@H](CCC(=O)O)C(=O)N[C@H](C(=O)N[C@@H](CCCCN)C(=O)N[C@H](C(=O)N[C@@H](CO)C(=O)N[C@@H](Cc1ccccc1)C(=O)N[C@@H](CC(C)C)C(=O)N[C@@H](CCCNC(=N)N)C(=O)N[C@@H](CCSC)C(=O)N[C@@H](CCCCN)C(=O)N[C@@H](CC(N)=O)C(=O)N[C@@H](CCCNC(=N)N)C(=O)N[C@@H](CC(N)=O)C(=O)N[C@@H](CO)C(=O)N[C@@H](C)C(=O)N[C@@H](CO)C(=O)N[C@@H](CCC(N)=O)C(=O)N[C@H](C(=O)N[C@@H](C)C(=O)N[C@@H](CO)C(=O)N[C@@H](CO)C(=O)N[C@@H](CC(C)C)C(=O)O)C(C)C)[C@@H](C)CC)[C@@H](C)CC [Kindpep1] (H-VKKKKIKAEIKISFLRMKNRNSASQVASSL-OH)
death during the treatment [1]: no death was observed | side effects [1]: no side effects were detected | toxicities in nude mice [2]: without apparent toxicities | death during the treatment [3]: no death was observed | side effects [3]: no any side effects was detected

levels of active β1-integrin on the cell surface (flow cytometry, 9EG7) [4]: increase levels of active β1-integrin
Compound: [Cl][Mn][Cl] [MnCl2]

velocity of cell migration of 168FARN cells in 3D collagen matrix (time-lapse tracking) [5]: 3.8 fold
Compound: wild-type Kindlin-1 expressed in 168FARN cells (from UniProt Q9BQL6 1-677)
